Consider 28 compounds from ChEMBL document CHEMBL4483862, “Open-source discovery of chemical leads for next-generation chemoprotective antimalarials” (2018).

The subject of this experiment is Plasmodium berghei. Nature of the experiment: Luciferase/luciferin-expressing antifolate-resistant parasites were used to infect a culture of HepG2 cells that were pre-incubated with compounds. Infected hepatocytes emit light due to the luciferase reaction. Assay results are presented as the percent inhibition of light emission compared to control. […]. The settings on record: sporozoite; for IC90: read-out: LUCIFERASE INFECTION ASSAY - IC90. The experiment is classed as functional.

Broadly, the IC50 is the point on the concentration scale where inhibition reaches its midpoint. Broadly, the IC90 is the point of the concentration-response curve where the effect stands at 90%. For the compound `CN(C)c1ccc(/C=C/c2cccc[n+]2C)cc1`, the IC90 was > 9.01 µM. Besides, the IC50 (HEPG2TOX_HILL_SLOPE 3.15, HEPG2TOX_R_SQUARED 0.984, PBLUC_HILL_SLOPE 12.7, PBLUC_R_SQUARED 0.413, read-out: LUCIFERASE INFECTION ASSAY - IC50) worked out at 7.92 µM.
Take `C[C@]12CC[C@H](O)C[C@H]1CC[C@@H]1C2CC[C@]2(C)[C@@H](C3=CC(=O)OC3)[C@@H](O)C[C@]12O` (stereo partly specified): the IC90 was found to be 8.37 µM. In addition, the IC50 (HEPG2TOX_HILL_SLOPE 3.04, HEPG2TOX_R_SQUARED 0.92, PBLUC_HILL_SLOPE 1.95, PBLUC_R_SQUARED 0.451, read-out: LUCIFERASE INFECTION ASSAY - IC50) came out at 2.7 µM.
For the compound `COc1cccc(/C=C/c2nnc(O)c(C#N)c2C)c1`, the IC90 stood at 6.75 µM. For the same compound, the IC50 (HEPG2TOX_HILL_SLOPE 3.05, HEPG2TOX_R_SQUARED 0.959, PBLUC_HILL_SLOPE 3.8, PBLUC_R_SQUARED 0.551, read-out: LUCIFERASE INFECTION ASSAY - IC50) came out at 3.79 µM.
On to `COc1ccc(-[n+]2c(-c3ccc(Br)cc3)cn3c2CCc2ccccc2-3)cc1`, for which the IC90 was found to be 3.77 µM. Besides, the IC50 (HEPG2TOX_HILL_SLOPE 3.09, HEPG2TOX_R_SQUARED 0.93, PBLUC_HILL_SLOPE 14.3, PBLUC_R_SQUARED 0.689, read-out: LUCIFERASE INFECTION ASSAY - IC50) came out at 3.23 µM.
With `COc1ccc(C(C)(O)c2nc(-c3ccccc3C)cs2)cc1` (stereo unspecified), the IC90 came out at 3.04 µM. For the same compound, the IC50 (HEPG2TOX_HILL_SLOPE 3.12, HEPG2TOX_R_SQUARED 0.895, PBLUC_HILL_SLOPE 4.56, PBLUC_R_SQUARED 0.531, read-out: LUCIFERASE INFECTION ASSAY - IC50) is 1.88 µM.
In the case of `CC1N(C)c2ccc(/C=C/c3nc4ccccc4s3)cc2C1(C)C` (stereo unspecified), the IC90 came out at 4.73 µM. Further, the IC50 (HEPG2TOX_HILL_SLOPE 3.14, HEPG2TOX_R_SQUARED 0.947, PBLUC_HILL_SLOPE 1.36, 1.57, PBLUC_R_SQUARED 0.638, 0.693, read-out: LUCIFERASE INFECTION ASSAY - IC50) worked out at 1.03 µM.
Turning to `CS(=O)(=O)Nc1ccc(-c2csc(Nc3ccccn3)n2)cc1`, the IC90 turned out to be 9.68 µM. Further, the IC50 (HEPG2TOX_HILL_SLOPE 3.13, HEPG2TOX_R_SQUARED 0.99, PBLUC_HILL_SLOPE 12.3, PBLUC_R_SQUARED 0.0453, read-out: LUCIFERASE INFECTION ASSAY - IC50) came out at 8.1 µM.
In the case of `CC(=O)Nc1ccc2c(Cn3ncc(Cl)c(Cl)c3=O)cc(=O)oc2c1`, the IC90 was 9.76 µM. The IC50 (HEPG2TOX_HILL_SLOPE 3.1, HEPG2TOX_R_SQUARED 0.966, PBLUC_HILL_SLOPE 14.3, 0.748, PBLUC_R_SQUARED 0.481, 0.667, read-out: LUCIFERASE INFECTION ASSAY - IC50) turned out to be 5.45 µM.
For the compound `O=C(Nc1ncc(Cc2ccccc2)s1)c1ccc2nc[nH]c2c1`, the IC90 is > 10 µM. Moreover, the 50% inhibitory concentration (IC50) (HEPG2TOX_HILL_SLOPE 3.11, HEPG2TOX_R_SQUARED 0.961, PBLUC_HILL_SLOPE 3.02, PBLUC_R_SQUARED 0.464, read-out: LUCIFERASE INFECTION ASSAY - IC50) turned out to be 5.71 µM.
With `CN1C(=O)N(Cc2ccc3ccccc3c2)C(=O)C12CCN(Cc1ccc(C#CC(C)(C)O)cc1)CC2`, the IC90 came out at 2.84 µM. Further, the IC50 (HEPG2TOX_HILL_SLOPE 3.16, HEPG2TOX_R_SQUARED 0.979, PBLUC_HILL_SLOPE 9.91, PBLUC_R_SQUARED 0.437, read-out: LUCIFERASE INFECTION ASSAY - IC50) was found to be 2.27 µM.
Consider `FC(F)(F)c1nc2ccccc2c2nnc(-c3ccc(Cl)cc3)n12`, for which the IC90 amounted to 3.88 µM. For the setting “HEPG2TOX_HILL_SLOPE 3.1, HEPG2TOX_R_SQUARED 0.959, PBLUC_HILL_SLOPE 22, PBLUC_R_SQUARED 0.45, read-out: LUCIFERASE INFECTION ASSAY - IC50”, the IC50 worked out at 3.51 µM.
For the compound `c1ccc2c(CN3CCN(c4ncnc5sccc45)CC3)csc2c1`, the IC90 was > 10 µM. Besides, the 50% inhibitory concentration (IC50) (HEPG2TOX_HILL_SLOPE 3.07, HEPG2TOX_R_SQUARED 0.815, PBLUC_HILL_SLOPE 3.96, PBLUC_R_SQUARED 0.666, read-out: LUCIFERASE INFECTION ASSAY - IC50) turned out to be 6.85 µM.
For `COc1ccc(-c2csc(N/C=C3/C(=O)NC(=O)c4ccccc43)n2)cc1OC`, the IC90 was determined as 8.15 µM. In addition, where the note is “HEPG2TOX_HILL_SLOPE 3.11, HEPG2TOX_R_SQUARED 0.952, PBLUC_HILL_SLOPE 3, PBLUC_R_SQUARED 0.801, read-out: LUCIFERASE INFECTION ASSAY - IC50”, the IC50 is 3.92 µM.
Turning to `CC(c1cccc(NC(=O)c2ccccc2)c1)N(C)c1ccc([N+](=O)[O-])cn1` (stereo unspecified), the IC90 was found to be 1.3 µM. For the same compound, the IC50 (HEPG2TOX_HILL_SLOPE 3.15, HEPG2TOX_R_SQUARED 0.897, PBLUC_HILL_SLOPE 11.5, PBLUC_R_SQUARED 0.814, read-out: LUCIFERASE INFECTION ASSAY - IC50) turned out to be 1.08 µM.
For the compound `CNc1nc2cnc(Nc3ccc(OC(F)(F)F)cc3)cc2n1Cc1ccccc1`, the 90% effect concentration (IC90) was 5.21 µM. Also, where the note is “HEPG2TOX_HILL_SLOPE 3.1, HEPG2TOX_R_SQUARED 0.978, PBLUC_HILL_SLOPE 7.5, PBLUC_R_SQUARED 0.303, read-out: LUCIFERASE INFECTION ASSAY - IC50”, the IC50 is 3.88 µM.
In the case of `CC(C)(C)c1cc(NS(=O)(=O)c2cc(C(F)(F)F)cc(C(F)(F)F)c2)c(C#N)s1`, the 90% effect concentration (IC90) came out at 2.55 µM. Also, the IC50 (HEPG2TOX_HILL_SLOPE 3.04, HEPG2TOX_R_SQUARED 0.973, PBLUC_HILL_SLOPE 26.7, PBLUC_R_SQUARED 0.729, read-out: LUCIFERASE INFECTION ASSAY - IC50) came out at 2.35 µM.
Regarding `COc1cc(OC)cc(-c2cc3c(Nc4ccc(OC)c(OC)c4)nccc3[nH]2)c1`, the IC90 came to 6.83 µM. Moreover, the IC50 (HEPG2TOX_HILL_SLOPE 3.11, HEPG2TOX_R_SQUARED 0.652, PBLUC_HILL_SLOPE 1.69, PBLUC_R_SQUARED 0.756, read-out: LUCIFERASE INFECTION ASSAY - IC50) was found to be 1.86 µM.
For the compound `CC(C)c1ccccc1N(C(=O)c1cc2ccccc2o1)c1nc2ccccc2s1`, the IC90 was > 10 µM. For the same compound, the IC50 (HEPG2TOX_HILL_SLOPE 3.13, HEPG2TOX_R_SQUARED 0.898, read-out: LUCIFERASE INFECTION ASSAY - IC50) is > 10 µM.
Regarding `O=C(Nc1nc2ccccc2[nH]1)c1oc2ccccc2c1CSCc1ccccc1`, the IC90 was found to be 5.1 µM. For the same compound, the IC50 (HEPG2TOX_HILL_SLOPE 3.05, HEPG2TOX_R_SQUARED 0.924, PBLUC_HILL_SLOPE 8.31, PBLUC_R_SQUARED 0.524, read-out: LUCIFERASE INFECTION ASSAY - IC50) came to 3.92 µM.
On to `Cc1ccc(NC(=O)Nc2ccc3nc(Cc4ccccc4)nn3c2)cc1`, for which the IC90 was found to be 2.11 µM. The IC50 (HEPG2TOX_HILL_SLOPE 3.07, HEPG2TOX_R_SQUARED 0.95, PBLUC_HILL_SLOPE 55.2, PBLUC_R_SQUARED 0.375, read-out: LUCIFERASE INFECTION ASSAY - IC50) came out at 2.02 µM.
For the compound `c1ccc2cc(-c3cnc4ccc(NCc5ccncc5)nn34)ccc2c1`, the IC90 came to 4.49 µM. Further, the IC50 (HEPG2TOX_HILL_SLOPE 3.1, HEPG2TOX_R_SQUARED 0.978, PBLUC_HILL_SLOPE 7.42, PBLUC_R_SQUARED 0.525, read-out: LUCIFERASE INFECTION ASSAY - IC50) stood at 3.34 µM.
On to `O=C(Nc1ccc(SC(F)(F)F)cc1)Nc1ccc(Sc2ccc(Cl)cc2)nc1`, for which the IC90 amounted to 5.24 µM. The half-inhibitory concentration (IC50) (HEPG2TOX_HILL_SLOPE 3.12, HEPG2TOX_R_SQUARED 0.943, PBLUC_HILL_SLOPE 7.91, PBLUC_R_SQUARED 0.378, read-out: LUCIFERASE INFECTION ASSAY - IC50) was 3.97 µM.
Take `CCOC(=O)c1c(C)[nH]c(C(=O)COC(=O)c2[nH]nc3ccccc23)c1C`: the IC90 is > 10 µM. Further, the IC50 (HEPG2TOX_HILL_SLOPE 3.07, HEPG2TOX_R_SQUARED 0.979, PBLUC_HILL_SLOPE 5.58, PBLUC_R_SQUARED 0.622, read-out: LUCIFERASE INFECTION ASSAY - IC50) turned out to be 8.71 µM.
As for `COc1cc(-c2nc3ccc(NC(=O)Nc4ccc(C)cc4)cn3n2)cc(OC)c1OC`, the IC90 was 2.87 µM. Also, the IC50 (HEPG2TOX_HILL_SLOPE 3.16, HEPG2TOX_R_SQUARED 0.688, PBLUC_HILL_SLOPE 3.03, PBLUC_R_SQUARED 0.446, read-out: LUCIFERASE INFECTION ASSAY - IC50) is 1.39 µM.
`CC(C(=O)Nc1ccc(S(N)(=O)=O)cc1)N1CCC(CCc2ccccc2)CC1` (stereo unspecified): the IC90 was > 10 µM. For the same compound, where the note is “HEPG2TOX_HILL_SLOPE 3.11, HEPG2TOX_R_SQUARED 0.733, PBLUC_HILL_SLOPE 2.39, PBLUC_R_SQUARED 0.628, read-out: LUCIFERASE INFECTION ASSAY - IC50”, the IC50 worked out at 5.36 µM.
In the case of `COc1cccc(-c2cnn3ccc(Nc4ccc(NS(=O)(=O)c5ccc(C)cc5)cc4)nc23)c1`, the IC90 was > 6.8 µM. In addition, where the note is “HEPG2TOX_HILL_SLOPE 3.16, HEPG2TOX_R_SQUARED 0.917, PBLUC_HILL_SLOPE 15.1, PBLUC_R_SQUARED 0.0764, read-out: LUCIFERASE INFECTION ASSAY - IC50”, the IC50 worked out at 6.21 µM.
For `COc1cc(OC)cc(-c2cn3c(-c4ccc5c(ccn5C)c4)cnc3cn2)c1`, the IC90 worked out at 0.163 µM. In addition, where the note is “HEPG2TOX_HILL_SLOPE 3.11, HEPG2TOX_R_SQUARED 0.612, PBLUC_HILL_SLOPE 2.08, PBLUC_R_SQUARED 0.748, read-out: LUCIFERASE INFECTION ASSAY - IC50”, the IC50 was found to be 0.0568 µM.
Turning to `CCN1C(=O)N(Cc2cccc(OC)c2)C(=O)C12CCN(Cc1cc3ccccc3s1)CC2`, the IC90 was > 7.12 µM. Also, the IC50 (HEPG2TOX_HILL_SLOPE 3.09, HEPG2TOX_R_SQUARED 0.881, PBLUC_HILL_SLOPE 9.24, PBLUC_R_SQUARED 0.267, read-out: LUCIFERASE INFECTION ASSAY - IC50) was 6.06 µM.
